Data on one compound can be found in article PMC6572135, “N-Methyl-D-glucamine–Calix[4]resorcinarene Conjugates: Self-Assembly and Biological Properties” (Molecules, 2019).

One series is described as follows: Hemolytic activity. The series is classed as cell-based. Particulars: human erythrocyte suspension, human erythrocytes, 37 °C. Here is the method: The hemolytic activity of the compounds was estimated by comparing the optical density of a solution containing a compound being tested and the blood with the optical density of the blood upon 100% hemolysis. A 10% suspension of human erythrocytes was used as an object of investigation; an erythrocytic mass with heparin was washed three times with a physiologic saline (0.9% NaCl) solution, centrifuged for 10 min at 800× g, and resuspended in the physiologic saline (0.9% NaCl) solution to a concentration of 10%. The concentrations of the compounds that corresponded to the MIC for the bacterial test strains were prepared in a physiologic saline (0.9% NaCl) solution (supplemented with 5% DMSO), and 4.5 mL of a compound at the corresponding dilution was added to 0.5 mL of a 10% suspension of erythrocytes. Samples were incubated for 1 h at 37 °C and centrifuged for 10 min at 2000× g. The release of hemoglobin was controlled by measuring the optical density of the supernatant on an AP-101 digital photoelectrocolorimeter (Apel, Kawaguchi, Japan) at 540 nm. Simultaneously, control samples were prepared: controls for zero hemolysis (blank): 0.5 mL of a 10% suspension of erythrocytes was added to a physiologic saline (0.9% NaCl) solution; 100% hemolysis: 0.5 mL of a 10% suspension of erythrocytes was added to 4.5 mL of distilled water. The experiments were repeated three times and data are presented as the mean ± standard deviation.

Series [1] is described as follows: Dynamic light scattering, hydrodynamic diameter. In kind it is physicochemical. Particulars: water.
Series [2] can be described thus: Stability of water solutions. The series is classed as physicochemical. As to conditions: water without MG.
In another series the test system is C.albicans 855–653. As to the kind of experiment: Fungistatic activity (MIC), dilution method. In kind it is cell-based. As to conditions: Candida albicans; C.albicans 855–653, fungistatic activity; read-out: Minimal Inhibiting Concentration (MIC). Here is the method:
In vitro bacteriostatic and fungistatic activities of the macrocycles were evaluated against pathogenic representatives of Gram-positive bacteria (Staphylococcus aureus 209p, Bacillus cereus 8035), Gram-negative bacteria (Pseudomonas aeruginosa 9027, Escherichia coli F-50), and yeast (Trichophyton mentagrophytes var. gypseum 1773, Aspergillus niger BKMF-1119, Candida albicans 885–653). Minimal inhibitory concentrations (MICs) were estimated by conventional dilution methods for bacteria and fungi. The antibacterial and antifungal assays were performed in Hottinger broth (HiMe-dia Laboratories Pvt. Ltd. Mumbai, India) and Sabouraud dextrose broth (HiMedia Laboratories Pvt. Ltd.) (bacteria 3 × 10^5 cfu/mL and yeast 2 × 10^4 cfu/mL). The bactericidal and fungicidal activities were determined as described earlier. The tests were repeated three times.

Series [3] in a line: Zeta potential by electrophoretic light scattering. In kind it is physicochemical. As to conditions: water solution, 25 °C; GCR-2 in the presence of two-fold excess MG; concentration not given. As to the method:
Formation of aggregates with increasing GCR-1 concentration was confirmed by the DLS method. In aqueous 1 mM GCR-1 solutions the formation of small particles with hydrodynamic diameter of 2.9 nm was observed (Figure 4a). This size is much more similar to that of a single molecule that to that of an aggregate. However, the bimodal distribution with peaks at 120 nm and 504 nm occurs for solution with 50 mM GCR-1. This could be attributed to the formation different stacked structures by head-to-head or head-to-tail interaction between GCR-1 molecules. […] Zeta-potential of GCR-1 aggregates obtained by electrophoretic light scattering in solution was −56.8 mV that correspond to sufficiently stable systems. Negative value was caused by dissociation of sulfonate groups of GCR-1 lower rim in aqueous medium. To confirm the morphology and dimension of the GCR-1 aggregates, TEM image was recorded (Figure 5a), where it was shown that GCR-1 molecules were assembled into non-well-defined large nanoparticles. The probable reason for such high polydispersity is multiple supramolecular interactions, such as Coulombic interactions between oppositely charged rims through head-to-tail self-assembly, hydrogen bonding between hydroxyl groups by head-to-head joining and π-π stacking between aromatic units of neighboring macrocycles (Figure 6a). […]

As a reminder, the melting point is the temperature, or range, at which the solid turns liquid. For `CC1c2cc(c(O)c(CN(C)C[C@@H](O)[C@H](O)[C@@H](O)[C@@H](O)CO)c2O)C(C)c2cc(c(O)c(CN(C)C[C@@H](O)[C@H](O)[C@@H](O)[C@@H](O)CO)c2O)C(C)c2cc(c(O)c(CN(C)C[C@@H](O)[C@H](O)[C@@H](O)[C@@H](O)CO)c2O)C(C)c2cc1c(O)c(CN(C)C[C@@H](O)[C@H](O)[C@@H](O)[C@@H](O)CO)c2O` (stereo partly drawn) [GCR-2, N-methyl-D-glucaminemethyl methylcalix[4]resorcinarene], the melting point was above 350 °C. The compound also gave a hemolysis at 1 h, 0.125 mM in the series “Hemolytic activity” (concentration 0.125 mM) of 21.3 ± 1.7%. In the series “Hemolytic activity” (concentration 0.25 mM), the hemolysis at 1 h, 0.25 mM worked out at 31.6 ± 2.7%. In the series “Hemolytic activity” (concentration 0.50 mM), this compound gave a hemolysis at 1 h, 0.5 mM of 38.1 ± 3.4%. For the same compound, in series [1] (15 mM GCR-2–30 mM MG mixed system), the Hydrodynamic diameter is given as 3.8 nm. In series [1] (mixed 1 mM GCR-2–2 mM MG system), this compound had a Hydrodynamic diameter of 2 nm. Moreover, the “Stability of water solutions” value in series [2] was “unstable and eventually precipitate”. Besides, in the series with C.albicans 855–653, the MIC was above 500 µM. Further, the Zeta-potential of aggregates in series [3] is on record as −17.4 mV.
